The values that follow come from patent US20160158200A1, “Combinations of Hepatitis C Virus Inhibitors” (priority 2013, published 2016).

The test relates to HCV genotype-1a variant with glutamine 30 changed to glutamate in the NS5A protein. In kind it is cell-based. As to conditions: test compound titrated with BMS-790052 fixed at 200 nM; genotype 1a Q30E replicon. The method, boiled down: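 Synergy was assessed by combining several fixed amounts of an NS5A-targeting compound with a titration of the second compound of interest.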
In general terms: In antiviral work, replicon cells carry a viral genome segment that copies itself.

Some results are limits rather than exact numbers.

Consider `CC(C)[C@H](NC(=O)C(C)(C)C)c1nc(-c2ccc(-c3ccc(-c4c[nH]c([C@@H](NC(=O)C(C)(C)C)C(C)C)n4)cn3)cc2)c[nH]1.O=C(O)C(F)(F)F` [Compound N-103], for which the “Fold-Synergistic 1a (Q30E)” value is above 100 fold.
Turning to `CC(C)(C)[C@H](NC(=O)C1CCC(F)(F)CC1)c1nc(-c2ccc(-c3ncc(-c4c[nH]c([C@@H](NC(=O)C5CCC(F)(F)CC5)C(C)(C)C)n4)cn3)cc2)c[nH]1` [Compound N-104], the “Fold-Synergistic 1a (Q30E)” value is given as above 100 fold.
The result for `CC(C)(C)C(=O)N[C@H](c1nc(-c2ccc(-c3cnc(-c4c[nH]c([C@@H](NC(=O)C(C)(C)C)C(C)(C)C)n4)cn3)cc2)c[nH]1)C(C)(C)C.O=C(O)C(F)(F)F` [Compound N-105] reads above 100 fold.
The value for `CC(C)(C)C(=O)N[C@H](c1nc(-c2ccc(-c3ccc(-c4c[nH]c([C@@H](NC(=O)C(C)(C)C)C(C)(C)CO)n4)cc3)cc2)c[nH]1)C(C)(C)CO` [Compound N-110] was above 100 fold; that for `CC(C)(C)[C@H](NC(=O)CC1CCC(F)(F)CC1)c1nc(-c2ccc(-c3ccc(-c4c[nH]c([C@@H](NC(=O)CC5CCC(F)(F)CC5)C(C)(C)C)n4)cc3)cc2)c[nH]1` [Compound N-112] was above 100 fold.
The result for `CC1(C(=O)N[C@H](c2nc(-c3ccc(-c4ccc(-c5c[nH]c([C@@H](NC(=O)C6(C)COC6)C(C)(C)C)n5)cc4)cc3)c[nH]2)C(C)(C)C)COC1` [Compound N-113] reads above 100 fold; that for `CC(C)(C)[C@H](NC(=O)c1ccc(C(F)(F)F)s1)c1nc(-c2ccc(-c3ccc(-c4c[nH]c([C@@H](NC(=O)c5ccc(C(F)(F)F)s5)C(C)(C)C)n4)cc3)cc2)c[nH]1` [Compound N-114], above 100 fold.
With `CC(C)(F)C(=O)N[C@H](c1nc(-c2ccc(-c3ccc(-c4c[nH]c([C@@H](NC(=O)C(C)(C)F)C(C)(C)C)n4)cc3)cc2)c[nH]1)C(C)(C)C` [Compound N-115], the “Fold-Synergistic 1a (Q30E)” value was above 100 fold.
As for `CC(C)(OCC(F)F)C(=O)N[C@H](c1nc(-c2ccc(-c3ccc(-c4c[nH]c([C@@H](NC(=O)C(C)(C)OCC(F)F)C(C)(C)C)n4)cc3)cc2)c[nH]1)C(C)(C)C` [Compound N-116], the “Fold-Synergistic 1a (Q30E)” value is listed as below 10 fold.
The value for `CC(C)CC(=O)N[C@H](c1nc(-c2ccc(-c3ccc(-c4c[nH]c([C@@H](NC(=O)CC(C)C)C(C)(C)C)n4)cc3)cc2)c[nH]1)C(C)(C)C` [Compound N-117] was above 100 fold; that for `C=C1CCC(C(=O)N[C@H](c2nc(-c3ccc(-c4ccc(-c5c[nH]c([C@@H](NC(=O)C6CCC(=C)CC6)C(C)(C)C)n5)cc4)cc3)c[nH]2)C(C)(C)C)CC1` [Compound N-118] was above 100 fold.
Consider `CC(C)(C)[C@H](NC(=O)CC1CC(F)(F)C1)c1nc(-c2ccc(-c3ccc(-c4c[nH]c([C@@H](NC(=O)CC5CC(F)(F)C5)C(C)(C)C)n4)cc3)cc2)c[nH]1` [Compound N-120], for which the “Fold-Synergistic 1a (Q30E)” value was above 100 fold.
As to `CC(C)(C)[C@H](NC(=O)C1CCC(=C(F)F)CC1)c1nc(-c2ccc(-c3ccc(-c4c[nH]c([C@@H](NC(=O)C5CCC(=C(F)F)CC5)C(C)(C)C)n4)cc3)cc2)c[nH]1` (stereo partly drawn) [Compound N-121], the “Fold-Synergistic 1a (Q30E)” value is above 100 fold.
Take `CC(C)(C)[C@H](NC(=O)C1CCC2(CC1)CC2)c1nc(-c2ccc(-c3ccc(-c4c[nH]c([C@@H](NC(=O)C5CCC6(CC5)CC6)C(C)(C)C)n4)cc3)cc2)c[nH]1` (stereo partly drawn) [Compound N-123]: the “Fold-Synergistic 1a (Q30E)” value is above 100 fold.
The result for `CC(C)(C)[C@H](NC(=O)[C@@]1(C)CCC(F)(F)CO1)c1nc(-c2ccc(-c3cnc(-c4c[nH]c([C@@H](NC(=O)[C@@]5(C)CCC(F)(F)CO5)C(C)(C)C)n4)cn3)cc2)c[nH]1` [Compound N-130] reads above 100 fold; that for `CC(C)[C@H](NC(=O)[C@@]1(C)CCC(F)(F)CO1)c1nc(-c2ccc3c(c2)CCc2cc(-c4c[nH]c([C@@H](NC(=O)[C@@]5(C)CCC(F)(F)CO5)C(C)C)n4)ccc2-3)c[nH]1` [Compound N-131], above 100 fold; that for `CC(C)[C@H](NC(=O)[C@@]1(C)CCC(F)(F)CO1)c1nc(-c2ccc(-c3ccc(-c4c[nH]c([C@@H](NC(=O)[C@@]5(C)CCC(F)(F)CO5)C(C)C)n4)c(F)c3)cc2)c[nH]1` [Compound N-132], above 100 fold.
Regarding `CC(C)[C@H](NC(=O)[C@@]1(C)CCC(F)(F)CO1)c1nc(-c2ccc(-c3ccc(-c4c[nH]c([C@@H](NC(=O)[C@@]5(C)CCC(F)(F)CO5)C(C)C)n4)cc3F)cc2)c[nH]1` [Compound N-133], the “Fold-Synergistic 1a (Q30E)” value is above 100 fold.
The value for `CC(C)[C@H](NC(=O)[C@@]1(C)CCC(F)(F)CO1)c1nc(-c2ccc(-c3ccc(-c4c[nH]c([C@@H](NC(=O)[C@@]5(C)CCC(F)(F)CO5)C(C)C)n4)cn3)cc2)c[nH]1` [Compound N-134] was above 100 fold.
The value for `CC(C)(C)[C@H](NC(=O)C(O)(CF)CF)c1nc(-c2ccc(-c3ccc(-c4c[nH]c([C@@H](NC(=O)C(O)(CF)CF)C(C)(C)C)n4)cc3)cc2)c[nH]1` [Compound N-140] was above 100 fold; that for `CC1([C@H](NC(=O)C(O)(CF)CF)c2nc(-c3ccc(-c4ccc(-c5c[nH]c([C@@H](NC(=O)C(O)(CF)CF)C6(C)CC6)n5)cc4)cc3)c[nH]2)CC1` [Compound N-141] was above 100 fold; that for `CC(C)[C@H](NC(=O)C(O)(CF)CF)c1nc(-c2ccc(-c3ccc(-c4c[nH]c([C@@H](NC(=O)C(O)(CF)CF)C(C)C)n4)cc3)cc2)c[nH]1` [Compound N-142] was above 100 fold.
The result for `CCOC(=O)C1(C(=O)N[C@H](c2nc(-c3ccc(-c4ccc(-c5c[nH]c([C@@H](NC(=O)C6(C(=O)OCC)CCCCC6)C(C)(C)C)n5)cc4)cc3)c[nH]2)C(C)(C)C)CCCCC1` [Compound N-146] reads above 100 fold; that for `CC(C)(C)[C@H](NC(=O)C1(C(=O)O)CCCCC1)c1nc(-c2ccc(-c3ccc(-c4c[nH]c([C@@H](NC(=O)C5(C(=O)O)CCCCC5)C(C)(C)C)n4)cc3)cc2)c[nH]1` [Compound N-147], above 100 fold.
`CC(C)(C)[C@H](NC(=O)C1(CO)CC(F)(F)C1)c1nc(-c2ccc(-c3ccc(-c4c[nH]c([C@@H](NC(=O)C5(CO)CC(F)(F)C5)C(C)(C)C)n4)cc3)cc2)c[nH]1` [Compound N-153]: the “Fold-Synergistic 1a (Q30E)” value is reported as above 100 fold.
The value for `CC(C)[C@H](NC(=O)C1(CO)CC(F)(F)C1)c1nc(-c2ccc(-c3ccc(-c4c[nH]c([C@@H](NC(=O)C5(CO)CC(F)(F)C5)C(C)C)n4)cc3)cc2)c[nH]1` [Compound N-154] was above 100 fold; that for `CC1([C@H](NC(=O)C2(CO)CC(F)(F)C2)c2nc(-c3ccc(-c4ccc(-c5c[nH]c([C@@H](NC(=O)C6(CO)CC(F)(F)C6)C6(C)CC6)n5)cc4)cc3)c[nH]2)CC1` [Compound N-155] was above 100 fold; that for `CCC(C)(C)C(=O)N[C@H](c1nc(-c2ccc(-c3ccc(-c4c[nH]c([C@@H](NC(=O)C(C)(C)CC)C(C)(C)C)n4)cc3)cc2)c[nH]1)C(C)(C)C` [Compound P-11] was above 100 fold.
`COCC(C)(C)C(=O)N[C@H](c1nc(-c2ccc(-c3ccc(-c4c[nH]c([C@@H](NC(=O)C(C)(C)COC)C(C)(C)C)n4)cc3)cc2)c[nH]1)C(C)(C)C` [Compound P-12]: the “Fold-Synergistic 1a (Q30E)” value is above 100 fold.
Consider `COC(C)(C)C(=O)N[C@H](c1nc(-c2ccc(-c3ccc(-c4c[nH]c([C@@H](NC(=O)C(C)(C)OC)C(C)(C)C)n4)cc3)cc2)c[nH]1)C(C)(C)C` [Compound P-13], for which the “Fold-Synergistic 1a (Q30E)” value is recorded as above 100 fold.
The result for `CC(C)(C)[C@H](NC(=O)C1(CF)CC1)c1nc(-c2ccc(-c3ccc(-c4c[nH]c([C@@H](NC(=O)C5(CF)CC5)C(C)(C)C)n4)cc3)cc2)c[nH]1` [Compound P-14] reads above 100 fold; that for `CO[C@@H](C(=O)N[C@H](c1nc(-c2ccc(-c3ccc(-c4c[nH]c([C@@H](NC(=O)[C@H](OC)c5ccccc5)C(C)(C)C)n4)cc3)cc2)c[nH]1)C(C)(C)C)c1ccccc1` [Compound P-15], above 100 fold; that for `CC(C)(C)[C@H](NC(=O)Cc1noc2ccccc12)c1nc(-c2ccc(-c3ccc(-c4c[nH]c([C@@H](NC(=O)Cc5noc6ccccc56)C(C)(C)C)n4)cc3)cc2)c[nH]1` [Compound P-16], above 100 fold.
The value for `CC(C)(C)[C@H](NC(=O)C1CC(F)(F)C1)c1nc(-c2ccc(-c3ccc(-c4c[nH]c([C@@H](NC(=O)C5CC(F)(F)C5)C(C)(C)C)n4)cc3)cc2)c[nH]1` [Compound P-17] was above 100 fold; that for `CO[C@H](C(=O)N[C@H](c1nc(-c2ccc(-c3ccc(-c4c[nH]c([C@@H](NC(=O)[C@@H](OC)c5ccccc5)C(C)(C)C)n4)cc3)cc2)c[nH]1)C(C)(C)C)c1ccccc1` [Compound P-18] was above 100 fold; that for `CC(C)(CF)C(=O)N[C@H](c1nc(-c2ccc(-c3ccc(-c4c[nH]c([C@@H](NC(=O)C(C)(C)CF)C(C)(C)C)n4)cc3)cc2)c[nH]1)C(C)(C)C` [Compound P-19] was above 100 fold.
The value for `CC1(C(=O)N[C@H](c2nc(-c3ccc(-c4ccc(-c5c[nH]c([C@@H](NC(=O)C6(C)CCC(F)(F)CC6)C(C)(C)C)n5)cc4)cc3)c[nH]2)C(C)(C)C)CCC(F)(F)CC1` [Compound P-20] was above 100 fold; that for `COC1(C(=O)N[C@H](c2nc(-c3ccc(-c4ccc(-c5c[nH]c([C@@H](NC(=O)C6(OC)CCC6)C(C)(C)C)n5)cc4)cc3)c[nH]2)C(C)(C)C)CCC1` [Compound P-21] was above 100 fold.
For the compound `CC(C)(C)[C@H](NC(=O)c1ncccc1F)c1nc(-c2ccc(-c3ccc(-c4c[nH]c([C@@H](NC(=O)c5ncccc5F)C(C)(C)C)n4)cc3)cc2)c[nH]1` [Compound P-22], the “Fold-Synergistic 1a (Q30E)” value is recorded as above 100 fold.
